Tests used:
HOP-62 [1] = assay: Growth inhibition of human HOP62 cells incubated for 48 hrs by sulforhodamine B assay; assay type: functional, cell-based; settings: HOP-62, 48 h
SR [2] = assay: Growth inhibition of human SR cells assessed as cell growth at 0.01 uM incubated for 48 hrs by sulforhodamine B assay relative to control; assay type: functional; settings: read-out: Activity
A498 [3] = assay: Growth inhibition of human A498 cells incubated for 48 hrs by sulforhodamine B assay; assay type: functional, cell-based; settings: A498, 48 h
K562 [4] = assay: Growth inhibition of human K562 cells assessed as cell growth at 1 uM incubated for 48 hrs by sulforhodamine B assay relative to control; assay type: functional; settings: K562, 48 h, read-out: Activity
OVCAR-3 = assay: Growth inhibition of human OVCAR3 cells assessed as cell growth at 100 uM incubated for 48 hrs by sulforhodamine B assay relative to control; assay type: functional; settings: OVCAR-3, 48 h, read-out: Activity
SN12C = assay: Growth inhibition of human SN12C cells assessed as cell growth at 0.01 uM incubated for 48 hrs by sulforhodamine B assay relative to control; assay type: functional; settings: read-out: Activity
OVCAR-5 = assay: Growth inhibition of human OVCAR5 cells assessed as cell growth at 100 uM incubated for 48 hrs by sulforhodamine B assay relative to control; assay type: functional; settings: OVCAR-5, 48 h, read-out: Activity
NCI-H23 = assay: Growth inhibition of human NCI-H23 cells assessed as cell growth at 0.01 uM incubated for 48 hrs by sulforhodamine B assay relative to control; assay type: functional; settings: NCI-H23, 48 h, read-out: Activity
A549 [5] = assay: Growth inhibition of human A549/ATCC cells assessed as cell growth at 0.01 uM incubated for 48 hrs by sulforhodamine B assay relative to control; assay type: functional; settings: A549, 48 h, read-out: Activity
SK-MEL-5 = assay: Growth inhibition of human SK-MEL-5 cells assessed as cell growth at 0.01 uM incubated for 48 hrs by sulforhodamine B assay relative to control; assay type: functional; settings: SK-MEL-5, 48 h, read-out: Activity
OVCAR-4 [6] = assay: Growth inhibition of human OVCAR4 cells assessed as cell growth at 0.1 uM incubated for 48 hrs by sulforhodamine B assay relative to control; assay type: functional; settings: OVCAR-4, 48 h, read-out: Activity
A549 [7] = assay: Growth inhibition of human A549/ATCC cells assessed as cell growth at 100 uM incubated for 48 hrs by sulforhodamine B assay relative to control; assay type: functional; settings: A549, 48 h, read-out: Activity
PC-3 [8] = assay: Growth inhibition of human PC3 cells assessed as cell growth at 0.01 uM incubated for 48 hrs by sulforhodamine B assay relative to control; assay type: functional; settings: PC-3, 48 h, read-out: Activity
ACHN = assay: Growth inhibition of human ACHN cells assessed as cell growth at 0.01 uM incubated for 48 hrs by sulforhodamine B assay relative to control; assay type: functional; settings: read-out: Activity
OVCAR-4 [9] = assay: Growth inhibition of human OVCAR4 cells assessed as cell growth at 1 uM incubated for 48 hrs by sulforhodamine B assay relative to control; assay type: functional; settings: OVCAR-4, 48 h, read-out: Activity
HT-29 [10] = assay: Growth inhibition of human HT-29 cells assessed as cell growth at 0.1 uM incubated for 48 hrs by sulforhodamine B assay relative to control; assay type: functional; settings: HT-29, 48 h, read-out: Activity
A498 [11] = assay: Growth inhibition of human A498 cells assessed as cell growth at 1 uM incubated for 48 hrs by sulforhodamine B assay relative to control; assay type: functional; settings: A498, 48 h, read-out: Activity
SR [12] = assay: Growth inhibition of human SR cells assessed as cell growth at 100 uM incubated for 48 hrs by sulforhodamine B assay relative to control; assay type: functional; settings: read-out: Activity
NCI-H226 = assay: Growth inhibition of human NCI-H226 cells assessed as cell growth at 1 uM incubated for 48 hrs by sulforhodamine B assay relative to control; assay type: functional; settings: NCI-H226, 48 h, read-out: Activity
PC-3 [13] = assay: Growth inhibition of human PC3 cells incubated for 48 hrs by sulforhodamine B assay; assay type: functional, cell-based; settings: PC-3, 48 h
HT-29 [14] = assay: Growth inhibition of human HT-29 cells incubated for 48 hrs by sulforhodamine B assay; assay type: functional, cell-based; settings: HT-29, 48 h
SK-OV-3 = assay: Growth inhibition of human SKOV3 cells assessed as cell growth at 1 uM incubated for 48 hrs by sulforhodamine B assay relative to control; assay type: functional; settings: SK-OV-3, 48 h, read-out: Activity
K562 [15] = assay: Growth inhibition of human K562 cells incubated for 48 hrs by sulforhodamine B assay; assay type: functional, cell-based; settings: K562, 48 h
KM12 = assay: Growth inhibition of human KM12 cells assessed as cell growth at 1 uM incubated for 48 hrs by sulforhodamine B assay relative to control; assay type: functional; settings: KM12, 48 h, read-out: Activity
MDA-MB-231 [16] = assay: Growth inhibition of human MDA-MB-231 cells assessed as cell growth at 0.1 uM incubated for 48 hrs by sulforhodamine B assay relative to control; assay type: functional; settings: MDA-MB-231, 48 h, read-out: Activity
Malme-3M = assay: Growth inhibition of human MALME-3M cells assessed as cell growth at 100 uM incubated for 48 hrs by sulforhodamine B assay relative to control; assay type: functional; settings: read-out: Activity
OVCAR-8 = assay: Growth inhibition of human OVCAR8 cells assessed as cell growth at 100 uM incubated for 48 hrs by sulforhodamine B assay relative to control; assay type: functional; settings: OVCAR-8, 48 h, read-out: Activity
MDA-MB-231 [17] = assay: Growth inhibition of human MDA-MB-231 cells assessed as cell growth at 1 uM incubated for 48 hrs by sulforhodamine B assay relative to control; assay type: functional; settings: MDA-MB-231, 48 h, read-out: Activity
SF-268 = assay: Growth inhibition of human SF268 cells assessed as cell growth at 0.1 uM incubated for 48 hrs by sulforhodamine B assay relative to control; assay type: functional; settings: SF-268, 48 h, read-out: Activity
HOP-62 [18] = assay: Growth inhibition of human HOP62 cells assessed as cell growth at 0.01 uM incubated for 48 hrs by sulforhodamine B assay relative to control; assay type: functional; settings: HOP-62, 48 h, read-out: Activity
[19] = read-out: LC50 (the source's name)
[20] = read-out: pLC50 (the source's name) (converted)

With `COc1cc(Cl)cc(-c2nn(-c3cccc(NC(=O)Nc4cc(C(F)(F)F)cc(C(F)(F)F)c4)c3)cc2-c2ccncc2)c1` the IC50 (HOP-62 [1]) was 650 nM, the GI50 (HOP-62 [1]; read-out: GI50) was 648 nM and the CC50 (HOP-62 [1]; [19]) was 7140 nM. For the same compound, the TGI (HOP-62 [1]; read-out: TGI) was 2390 nM, the GI50 (HOP-62 [1]; read-out: pGI50 (converted)) was 646 nM and the CC50 (HOP-62 [1]; [20]) was 7080 nM. It also gave a TGI (HOP-62 [1]; read-out: pTGI (converted)) of 2400 nM, a growth at 0.01 µM (SR [2]) of 101% and an IC50 (A498 [3]) of 390 nM. It also gave a GI50 (A498 [3]; read-out: GI50) of 350 nM, a CC50 (A498 [3]; [19]) of 33.4 nM and a TGI (A498 [3]; read-out: TGI) of 3590 nM. It also gave a GI50 (A498 [3]; read-out: pGI50 (converted)) of 389 nM, a CC50 (A498 [3]; [20]) of 33100 nM and a TGI (A498 [3]; read-out: pTGI (converted)) of 3630 nM. It also gave a growth at 1 µM (K562 [4]) of 18%, a growth at 100 µM (OVCAR-3) of -81% and a growth at 0.01 µM (SN12C) of 96%. The growth at 100 µM (OVCAR-5) was -80%, the growth at 0.01 µM (NCI-H23) was 94% and the growth at 0.01 µM (A549 [5]) was 100%. It also gave a growth at 0.01 µM (SK-MEL-5) of 100%, a growth at 0.1 µM (OVCAR-4 [6]) of 97% and a growth at 100 µM (A549 [7]) of -68%. The growth at 0.01 µM (PC-3 [8]) was 101%, the growth at 0.01 µM (ACHN) was 103% and the growth at 1 µM (OVCAR-4 [9]) was 30%. It also gave a growth at 0.1 µM (HT-29 [10]) of 101%, a growth at 1 µM (A498 [11]) of 37% and a growth at 100 µM (SR [12]) of -8%. The growth at 1 µM (NCI-H226) was 41%, the IC50 (PC-3 [13]) was 300 nM and the GI50 (PC-3 [13]; read-out: GI50) was 297 nM. It also gave a CC50 (PC-3 [13]; [19]) greater than 100000 nM, a TGI (PC-3 [13]; read-out: TGI) of 1630 nM and a GI50 (PC-3 [13]; read-out: pGI50 (converted)) of 295 nM. The CC50 (PC-3 [13]; [20]) was greater than 100000 nM, the TGI (PC-3 [13]; read-out: pTGI (converted)) was 1620 nM and the IC50 (HT-29 [14]) was 450 nM. For the same compound, the GI50 (HT-29 [14]; read-out: GI50) was 453 nM, the CC50 (HT-29 [14]; [19]) was 12.6 nM and the TGI (HT-29 [14]; read-out: TGI) was 2210 nM. It also gave a GI50 (HT-29 [14]; read-out: pGI50 (converted)) of 457 nM, a CC50 (HT-29 [14]; [20]) of 12900 nM and a TGI (HT-29 [14]; read-out: pTGI (converted)) of 2820 nM. The growth at 1 µM (SK-OV-3) was 43%, the IC50 (K562 [15]) was 350 nM and the GI50 (K562 [15]; read-out: GI50) was 351 nM. It also gave an LC50 (K562 [15]; read-out: LC50) greater than 100000 nM, a TGI (K562 [15]; read-out: TGI) of 5840 nM and a GI50 (K562 [15]; read-out: pGI50 (converted)) of 355 nM. It also gave an LC50 (K562 [15]; read-out: pLC50 (converted)) greater than 100000 nM, a TGI (K562 [15]; read-out: pTGI (converted)) of 5890 nM and a growth at 1 µM (KM12) of 31%. For the same compound, the growth at 0.1 µM (MDA-MB-231 [16]) was 90%, the growth at 100 µM (Malme-3M) was -39% and the growth at 100 µM (OVCAR-8) was -62%. For the same compound, the growth at 1 µM (MDA-MB-231 [17]) was 29%, the growth at 0.1 µM (SF-268) was 99% and the growth at 0.01 µM (HOP-62 [18]) was 93%.
